US20040019082A1, “Reversible infertility in male mice following oral administration of alkylated imino sugars: a non-hormonal approach to male contraception” (United Therapeutics Corporation, priority 2002, published 2004)

Experiments:
Type in all cases: in vivo, mouse
[1] = Body, gonad and organ weights of treated mice
[2] = test system: liver glycogen; assay: Liver glycogen levels in fed or starved mice; conditions: 250 mg/kg/day
Procedure: Liver glycogen levels were measured in untreated and NN-DGJ-treated mice (FIG. 6B), who were either provided food or starved.

[3] = test system: male C57BL/6 mice; assay: Mating assay, fertility of male mice; conditions: 250 mg/kg/day
Text: Treatment of mice—Male C57BL/6 mice were housed under standard non-sterile conditions. The mice were provided with water ad lib. and prior to drug administration were fed a diet of pelleted mouse chow (expanded Rat and Mouse Chow 3, SDS Ltd.) To administer the compounds of the present invention, the mice were fed a diet of powdered mouse chow (expanded Rat and Mouse Chow 1, ground, SDS Ltd.) containing either NB-DNJ, NB-DGJ, NN-6-MeDGJ, or DNJ. The diet and compound (both as dry solids) were mixed thoroughly, stored at room temperature, and used within 7 days of mixing.
Mating assays—To assess the fertility of male mice that were fed on a diet containing an iminosugar, a mating assay was used: typically six week old male C57BL/6 mice in groups of three were administered diet containing compound for five weeks (unless otherwise specified), after which each of them was caged with four untreated female C57BL/6 mice, and provided with standard pelleted chow. Females were at least 11 weeks old, and age-matched in each experiment. The male was removed from the females after 7 or 9 days, depending on the experiment; the females were monitored for vaginal mucous plugs, pregnancies, and, if any, litter sizes. To study any effect on female fertility six-week-old female C57BL/6 mice were treated with NB-DNJ for five weeks, after which each of them was caged with a non-treated age-matched male for four days.

thymus and spleen weights ([1]; 250 mg/kg/day): did not affect | breakdown of liver glycogen during starvation [2]: did not inhibit
Structure (SMILES): CCCCCCCCCN1C[C@H](O)[C@@H](O)[C@@H](O)[C@H]1CO [NN-DGJ]
body weight relative to untreated mice ([1]; 250 mg/kg/day over a 40 day period, n=8): did not affect | fertility of male mice ([3]; after five weeks of treatment, four treated mice): completely suppressed | litter size compared with untreated males ([3]; six weeks after withdrawal): almost the same | fertility of male mice after withdrawal ([3]; six weeks following withdrawal): fully regained fertility
